Measurements as given in the supplement of paper PMC10307832.

Experiments:
Assay in all cases: relative viability (nuclei count vs DMSO), 5 days (fraction); higher = more cells survive
[1] = system: LOU-NH91
Method in brief: (§1)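 For relative viability, nuclei counts in treated wells were divided by those in vehicle wells. Lung cancer cell lines had been pin-tool dosed in 1536-well plates the day after seeding and cultured for 5 days, then fixed and stained in one step (final 0.05% Triton X-100, 1% formaldehyde, 1 ug/ml Hoechst) and imaged at 4×. Doses were one drug alone or a fixed anchor-drug dose plus five library-drug doses (not always all listed) in √10 steps, and values are duplicate-plate medians.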

[2] = system: SW 900
Method in brief: as §1

[3] = system: ChaGo-K-1
Method in brief: as §1

[4] = system: COR-L 105
Method in brief: as §1

[5] = system: HCC-366
Method in brief: as §1

[6] = system: LK-2
Method in brief: as §1

[7] = system: NCI-H1944
Method in brief: as §1

[8] = system: NCI-H1666
Method in brief: as §1

[9] = system: NCI-H596
Method in brief: as §1

[10] = system: NCI-H441
Method in brief: as §1

[11] = system: H3255
Method in brief: as §1

[12] = system: PC-3 [JPC-3]
Method in brief: as §1

[13] = system: NCI-H1792
Method in brief: as §1

[14] = system: EKVX
Method in brief: as §1

[15] = system: A-427
Method in brief: as §1

[16] = system: NCI-H1975
Method in brief: as §1

[17] = system: NCI-H520
Method in brief: as §1

[18] = system: SK-MES-1
Method in brief: as §1

[19] = system: NCI-H1755
Method in brief: as §1

[20] = system: EMC-BAC-2
Method in brief: as §1

[21] = system: NCI-H1734
Method in brief: as §1

[22] = system: NCI-H2170
Method in brief: as §1

[23] = system: NCI-H23
Method in brief: as §1

COc1cc(N2CCC(C(N)=O)CC2)ccc1Nc1nc(N)c(Cl)c(Nc2ccccc2S(=O)(=O)C(C)C)n1 [HG-5-88-01] + CC(=O)Nc1cccc(-n2c(=O)n(C3CC3)c(=O)c3c(Nc4ccc(I)cc4F)n(C)c(=O)c(C)c32)c1 [Trametinib] (partner 0.02 µM)
relative viability ([1]; first compound 0.04 µM): 0.74
relative viability ([1]; first compound 0.1265 µM): 0.787
relative viability ([1]; first compound 0.4 µM): 0.602
relative viability ([1]; first compound 1.265 µM): 0.567
relative viability ([1]; first compound 4 µM): 0.579
relative viability ([2]; first compound 0.04 µM): 0.941
relative viability ([2]; first compound 0.1265 µM): 0.943
relative viability ([2]; first compound 0.4 µM): 0.875
relative viability ([2]; first compound 1.265 µM): 0.627
relative viability ([2]; first compound 4 µM): 0.685
relative viability ([3]; first compound 0.04 µM): 0.868
relative viability ([3]; first compound 0.1265 µM): 0.908
relative viability ([3]; first compound 0.4 µM): 0.843
relative viability ([3]; first compound 1.265 µM): 0.925
relative viability ([3]; first compound 4 µM): 0.875
relative viability ([4]; first compound 0.04 µM): 0.471
relative viability ([4]; first compound 0.1265 µM): 0.423
relative viability ([4]; first compound 0.4 µM): 0.402
relative viability ([4]; first compound 1.265 µM): 0.319
relative viability ([4]; first compound 4 µM): 0.421
relative viability ([5]; first compound 0.04 µM): 0.429
relative viability ([5]; first compound 0.1265 µM): 0.366
relative viability ([5]; first compound 0.4 µM): 0.365
relative viability ([5]; first compound 1.265 µM): 0.361
relative viability ([5]; first compound 4 µM): 0.243
relative viability ([6]; first compound 0.04 µM): 0.927
relative viability ([6]; first compound 0.1265 µM): 0.911
relative viability ([6]; first compound 0.4 µM): 0.728
relative viability ([6]; first compound 4 µM): 0.514
relative viability ([7]; first compound 0.04 µM): 0.386
relative viability ([7]; first compound 0.1265 µM): 0.48
relative viability ([7]; first compound 0.4 µM): 0.396
relative viability ([7]; first compound 1.265 µM): 0.398
relative viability ([7]; first compound 4 µM): 0.398
relative viability ([8]; first compound 0.04 µM): 0.942
relative viability ([8]; first compound 0.1265 µM): 0.918
relative viability ([8]; first compound 0.4 µM): 0.853
relative viability ([8]; first compound 1.265 µM): 0.775
relative viability ([8]; first compound 4 µM): 0.621
relative viability ([9]; first compound 0.04 µM): 0.901
relative viability ([9]; first compound 0.1265 µM): 0.794
relative viability ([9]; first compound 0.4 µM): 0.75
relative viability ([9]; first compound 1.265 µM): 0.808
relative viability ([9]; first compound 4 µM): 0.778
relative viability ([10]; first compound 0.04 µM): 0.543
relative viability ([10]; first compound 0.1265 µM): 0.428
relative viability ([10]; first compound 0.4 µM): 0.455
relative viability ([10]; first compound 1.265 µM): 0.345
relative viability ([10]; first compound 4 µM): 0.336
relative viability ([11]; first compound 0.04 µM): 0.563
relative viability ([11]; first compound 0.1265 µM): 0.697
relative viability ([11]; first compound 0.4 µM): 0.619
relative viability ([11]; first compound 4 µM): 0.539
relative viability ([12]; first compound 0.04 µM): 0.708
relative viability ([12]; first compound 0.1265 µM): 0.738
relative viability ([12]; first compound 0.4 µM): 0.684
relative viability ([12]; first compound 1.265 µM): 0.448
relative viability ([12]; first compound 4 µM): 0.361
relative viability ([13]; first compound 0.04 µM): 0.444
relative viability ([13]; first compound 0.1265 µM): 0.535
relative viability ([13]; first compound 0.4 µM): 0.401
relative viability ([13]; first compound 1.265 µM): 0.432
relative viability ([13]; first compound 4 µM): 0.576
relative viability ([14]; first compound 0.04 µM): 0.367
relative viability ([14]; first compound 0.1265 µM): 0.36
relative viability ([14]; first compound 0.4 µM): 0.278
relative viability ([14]; first compound 4 µM): 0.266
relative viability ([15]; first compound 0.04 µM): 0.8
relative viability ([15]; first compound 0.1265 µM): 0.754
relative viability ([15]; first compound 0.4 µM): 0.749
relative viability ([15]; first compound 1.265 µM): 0.662
relative viability ([15]; first compound 4 µM): 0.487
relative viability ([16]; first compound 0.04 µM): 0.4
relative viability ([16]; first compound 0.1265 µM): 0.446
relative viability ([16]; first compound 0.4 µM): 0.331
relative viability ([16]; first compound 1.265 µM): 0.329
relative viability ([16]; first compound 4 µM): 0.247
relative viability ([17]; first compound 0.04 µM): 0.568
relative viability ([17]; first compound 0.1265 µM): 0.831
relative viability ([17]; first compound 0.4 µM): 0.617
relative viability ([17]; first compound 1.265 µM): 0.74
relative viability ([17]; first compound 4 µM): 0.634
relative viability ([18]; first compound 0.04 µM): 0.535
relative viability ([18]; first compound 0.1265 µM): 0.54
relative viability ([18]; first compound 0.4 µM): 0.503
relative viability ([18]; first compound 1.265 µM): 0.498
relative viability ([18]; first compound 4 µM): 0.619
relative viability ([19]; first compound 0.04 µM): 0.765
relative viability ([19]; first compound 0.1265 µM): 0.72
relative viability ([19]; first compound 0.4 µM): 0.773
relative viability ([19]; first compound 1.265 µM): 0.78
relative viability ([19]; first compound 4 µM): 0.792
relative viability ([20]; first compound 0.04 µM): 0.927
relative viability ([20]; first compound 0.1265 µM): 0.939
relative viability ([20]; first compound 0.4 µM): 0.8
relative viability ([20]; first compound 1.265 µM): 0.564
relative viability ([20]; first compound 4 µM): 0.632
relative viability ([21]; first compound 0.04 µM): 0.669
relative viability ([21]; first compound 0.1265 µM): 0.755
relative viability ([21]; first compound 0.4 µM): 0.643
relative viability ([21]; first compound 1.265 µM): 0.623
relative viability ([21]; first compound 4 µM): 0.621
relative viability ([22]; first compound 0.04 µM): 0.961
relative viability ([22]; first compound 0.1265 µM): 0.964
relative viability ([22]; first compound 0.4 µM): 0.894
relative viability ([22]; first compound 1.265 µM): 0.672
relative viability ([22]; first compound 4 µM): 1.03
relative viability ([23]; first compound 0.04 µM): 0.383
relative viability ([23]; first compound 0.1265 µM): 0.336
relative viability ([23]; first compound 0.4 µM): 0.366
relative viability ([23]; first compound 1.265 µM): 0.28
relative viability ([23]; first compound 4 µM): 0.247
